Results from US12268727B2, “Bioactive polypeptides for improvements in plant protection, growth and productivity” (priority 2017, dated 2025).

Tests used:
Type in all cases: in vivo
soybean [1] = assay: Foliar application to soybean, field yield trials; details: for average yield change vs non-treated control: Flg22 polypeptides 0.33 Fl. oz/Ac, RHPP 4 Fl. oz/Ac
soybean [2] = assay: Seed treatment of soybean, field yield trials; details: for Average Yield Bu/Ac / Average Change in Bu/Ac compared to Untreated Control: seed treatment on base ST; for Average Yield Bu/Ac: 1 variety, 1 location, four replicate plots
tomatoes = assay: Foliar application to tomato, yield; details: for change in fruit weight per plant vs no spray control: Roma, Bt.4Q7Flg22 16.7 μM at 4.0 Fl. oz/Ac, Gm.RHPP 100 μM at 3.2 Fl. oz/Ac
Protocol: Small scale plots were designed to simulate commercial growing conditions for tomatoes. Two hybrids of tomatoes, JetSetter (Trial 1) and Better Big Boy (Trial 2) were started as transplants in the greenhouse 42 to 56 days prior to planting in the raised field beds. Tomatoes were transplanted once soil temperatures three inches (7.6 cm) beneath the soil surface reach 60° F. (15.5° C.). Tomatoes were grown on raised beds covered with black plastic mulch. Plants were grown using drip irrigation and fertilizer applied following grower guidelines throughout the growing season to ensure optimum plant growth and yields. Small raised bed plots were designed to simulate the planting densities used by commercial growers that generally plant 2,600 to 5,800 plants per acre in single rows with 18 to 30 inches (46 to 76 cm) between plants in the row on 5- to 6.5-ft (1.5 to 2 m) centers.
Foliar treatments of Bt.4Q7 Flg22 and Ec. […] Replicated trials were conducted at the University of Missouri (Columbia, Mo.) in July. Control plants were treated with equal volumes (use rates) of water. Effects of the foliar treatments on increasing yield in tomatoes were determined and reported as normalized to the water control treatment.
In another experiment, tomato plants (hybrid: Better Boy), cultivated as described in the previous example, were treated with a formulation of Bt.4Q7 Flg22 at the first bloom stage. The formulation used consisted of the retro inverso D RI Bt.4Q7 Flg22 applied with 0.01% (v/v) non-ionic surfactant. […] At harvest, the yield was measured as the number of fruits per plant, the weight (grams) per fruit and the total yield (lbs/Ac). Table 29 reports the yield as a percent comparison or change to the non-treated control (water only) plants.
Foliar application treatments of Gm.RHPP (SEQ ID NO: 600) was applied as an exogenous spray at the pre-bloom stage and used to increase yield in tomatoes. Two tomato hybrids (JetSetter and Better Big Boy) were planted in small scale plots as described in Example 12. […] Replicated trials were conducted at the US Midwest (Missouri) in July. The foliar treatment of Gm.RHPP on tomato plants was compared to the control (water applied at same use rate). Effects of the foliar treatments on increasing yield in tomatoes were determined and reported as normalized to the water control treatment and reported as the average percentage change in yield over the average control yield in Table 41.
Small scale plots were designed to simulate commercial growing conditions for tomatoes. Tomato plants, variety Roma were started from transplants that were grown in a greenhouse for 45 days prior to planting into 2 raised field row beds with 2 feet (0.6 meters) between each transplant with an average of 30 plants per row bed. […] Tomatoes were grown on raised beds covered with black plastic mulch. Plants were grown using drip irrigation and fertilizer (80 lbs. or 36.3 kg) nitrogen; 100 lbs. (45.4 kg) phosphate, and 100 lbs. (45.4 kg) potash or potassium) applied following grower guidelines throughout the growing season to provide for optimum plant growth and yields. Small raised bed plots were designed to simulate the planting densities used by commercial growers that generally plant 2,600 to 5,800 plants per acre in single rows with 45.7 to 76.2 cm between plants in the row on 1.5- to 2-meter centers. [Orzolek et al., “Agricultural Alternatives: Tomato Production.” University Park: Penn State Extension, 2016].
Foliar treatments using Bt.4Q7Flg22 and Gm.RHPP were applied on the tomato plants directly at early bloom (first flower) stage.

[3] = foliar at R2, 7 US Midwest locations, use rate 0.33 Fl. oz/Ac
[4] = foliar at R2, 7 US Midwest locations, use rate 4.0 Fl. oz/Ac
[5] = foliar at R2, 7 US Midwest locations, use rate 8.0 Fl. oz/Ac
[6] = foliar at R2, AG3536, 7 US Midwest locations, use rate 0.33 Fl. oz/Ac
[7] = polypeptide 0.25 μM (cellobiose 1 mM where combined)
[8] = polypeptide 1.0 μM (cellobiose 1 mM where combined)
[9] = 1 Fl. oz/Ac, first bloom, hybrid Better Boy, formulation with 0.01% non-ionic surfactant
[10] = 1 Fl. oz/Ac, foliar at early bloom
[11] = 20 Fl. oz/Ac, foliar at early bloom
[12] = foliar at R2, average of AG3536 and AG3832, use rate RHPP 4.0, N-RAGE MAX 128 Fl. oz/Ac
[13] = foliar 1 Fl. oz/Ac at early bloom, vs water control

Substance: Bt.4Q7Flg22: Flg22 polypeptide (22 amino acids) from flagellin of Bacillus thuringiensis strain 4Q7 (DRLSSGKRINSASDDAAGLAIA; listed as Bacillus thuringiensis)
- win rate (soybean [1]; R2 foliar 0.33 Fl. oz/Ac, 11 locations): 64%
- yield advantage (soybean [1]; R2 foliar, 8 Fl. oz/Ac, 11 sites): 0.88 Bu/Ac
- average yield change vs non-treated control (soybean [1]; R2 foliar, 11 locations): −0.1 Bu/Ac
- Average Bu/Ac Increase compared to Control Variety 1 and 2 (soybean [1]; [3]): +0.45 Bu/Ac
- Average Total Yield Bu/Ac Variety 1 and 2 (soybean [1]; [3]): 61.02 Bu/Ac
- Average Bu/Ac Increase compared to Control Variety 1 and 2 (soybean [1]; [4]): +0.33 Bu/Ac
- Average Total Yield Bu/Ac Variety 1 and 2 (soybean [1]; [4]): 60.90 Bu/Ac
- Average Bu/Ac Increase compared to Control Variety 1 and 2 (soybean [1]; [5]): +0.88 Bu/Ac
- Average Total Yield Bu/Ac Variety 1 and 2 (soybean [1]; [5]): 61.45 Bu/Ac
- Average Total Yield Bu/Ac Variety 2 (soybean [1]; [6]): 61.61 Bu/Ac
- Average Total Yield Bu/Ac Variety 2 (soybean [1]; foliar at R2, AG3536, 7 US Midwest locations, use rate 4.0 Fl. oz/Ac): 64.19 Bu/Ac
- Average Total Yield Bu/Ac Variety 2 (soybean [1]; foliar at R2, AG3536, 7 US Midwest locations, use rate 8.0 Fl. oz/Ac): 63.86 Bu/Ac
- average yield increase over base seed treatment (soybean [2]; 1.0 μM, 0.14 Fl. oz per unit, Columbia Mo., 4 replicate plots): 5.11 Bu/Ac
- Average Yield Bu/Ac (soybean [2]; [7]): 43.80 Bu/Ac
- Average Yield Bu/Ac (soybean [2]; [8]): 46.22 Bu/Ac
- Average Change in Bu/Ac compared to Untreated Control (soybean [2]; [7]): +2.69 Bu/Ac
- Average Change in Bu/Ac compared to Untreated Control (soybean [2]; [8]): +5.11 Bu/Ac
- win rate (soybean [2]; third study, 12 locations): 64%
- yield benefit (soybean [2]; third study, 12 locations): 1.3 Bu/Ac
- Percent Change in Number of Fruits per Plant Compared to Control (tomatoes; [9]): +12%
- Percent Change in Weight/Fruit Compared to Control (tomatoes; [9]): +9%
- Percent Change in Yield (lbs/Ac) Compared to Control (tomatoes; [9]): +21%
- Average Trials 1 & 2 Percent Change Yield over Avg. Control (tomatoes; [10]): +25%
- Trial 1: Percent Change in Yield over Avg. Control; Hybrid: Jetsetter (tomatoes; [10]): +49%
- Trial 2: Percent Change in Yield over Avg. Control; Hybrid: Better Big Boy (tomatoes; [10]): +1%
- Average Trials 1 & 2 Percent Change Yield over Avg. Control (tomatoes; [11]): +17%
- Trial 1: Percent Change in Yield over Avg. Control; Hybrid: Jetsetter (tomatoes; [11]): +22%
- Trial 2: Percent Change in Yield over Avg. Control; Hybrid: Better Big Boy (tomatoes; [11]): +12%
- change in fruit weight per plant vs no spray control (tomatoes): 8.61%
- increase in tomato yield over control, two hybrids averaged (tomatoes; early bloom, high rate 20 Fl. oz/Ac): 17%
- increase in tomato yield over control, two hybrids averaged (tomatoes; early bloom, low rate 1 Fl. oz/Ac): 25%

Substance: GGIRAAPTGNER (Glycine max) [RHPP, Root Hair Promoting Peptide from Glycine max]
- yield advantage on top of foliar fertilizer (soybean [1]; 8 fl oz/Ac with foliar fertilizer, 11 sites): 1 Bu/AC
- yield increase over non-treated control (soybean [1]; R2 foliar, 2 varieties, 7 locations, RHPP alone 4.0 Fl. oz/Ac): 1.26 Bu/Ac
- yield advantage (soybean [1]; R2 foliar, 4 Fl. oz/Ac, 11 sites): 0.31 Bu/Ac
- average yield change vs non-treated control (soybean [1]; R2 foliar, 11 locations): 1.2 Bu/Ac
- yield increase compared to fertilizer alone (soybean [1]; RHPP 1 Fl. oz/Ac (300 nM) with N-RAGE MAX, R2, variety AG3536, 5 locations): 1.4 Bu/Ac
- Average Bu/Ac Increase compared to Control Variety 1 and 2 (soybean [1]; [3]): +0.35 Bu/Ac
- Average Total Yield Bu/Ac Variety 1 and 2 (soybean [1]; [3]): 60.92 Bu/Ac
- Average Total Yield Bu/Ac Variety 2 (soybean [1]; [6]): 62.44 Bu/Ac
- Average Bu/Ac Change compared to Control Variety 1 and 2 (soybean [1]; [12]): +0.9 Bu/Ac
- Average Total Yield Bu/Ac Variety 1 and 2 (soybean [1]; [12]): 63.23 Bu/Ac
- Average Total Yield Bu/Ac Variety 1 (soybean [1]; foliar at R2, variety 1 (AG3536), 5 US Midwest locations, use rate RHPP 4.0, N-RAGE MAX 128 Fl. oz/Ac): 65.42 Bu/Ac
- Average Total Yield Bu/Ac Variety 2 (soybean [1]; foliar at R2, variety 2 (AG3832), 5 US Midwest locations, use rate RHPP 4.0, N-RAGE MAX 128 Fl. oz/Ac): 61.04 Bu/Ac
- win rate (soybean [2]; seed treatment, 11 sites): 73%
- yield increase (soybean [2]; seed treatment, 11 sites): 1.2 bu/Ac
- win rate (soybean [2]; third study, 12 locations): 64%
- yield benefit (soybean [2]; third study, 12 locations): 0.4 Bu/Ac
- increase in tomato yield over control (tomatoes; 1 Fl. oz/Ac, Better Big Boy): 10%
- increase in tomato yield over control (tomatoes; 1 Fl. oz/Ac, Jetsetter hybrid): 93%
- average increase in tomato yield over control, two hybrids (tomatoes; 1 Fl. oz/Ac, early bloom): 52%
- Percentage Change in Fruit Weight Compared to No-Spray Control (tomatoes; Roma tomato, foliar at early bloom, Bt.4Q7Flg22 16.7 μM 4.0 Fl. oz/Ac, Gm.RHPP 100 μM 3.2 Fl. oz/Ac): +1.99%
- Average Fruit Weight (grams) per Plant (tomatoes; Roma tomato, foliar at early bloom, Bt.4Q7Flg22 16.7 μM 4.0 Fl. oz/Ac, Gm.RHPP 100 μM 3.2 Fl. oz/Ac, 2 harvests): 1397.1 grams
- change in fruit weight per plant vs no spray control (tomatoes): ~2%
- Average Trials 1 & 2 Percent Change Yield over Avg. Control (tomatoes; foliar 1 Fl. oz/Ac at early bloom, both tomato hybrids): +52%
- Trial 1: Percent Change in Yield over Avg. Control; Hybrid: Jetsetter (tomatoes; [13]): +93%
- Trial 2: Percent Change in Yield over Avg. Control; Hybrid: Better Big Boy (tomatoes; [13]): +10%
